Blank lines part the entries; values can stand above or below the molecule they belong to.
Tests used:
NFκB signaling = test: NFκB-dependent secreted alkaline phosphatase reporter in RAW cells; format: cell-based, murine; conditions: transient transfection, IFNγ or LPS stimulation
Procedure: (§1) Function of the mutant and wt SHP-1 constructs was tested in RAW cells by transient transfection of SHP-1 vectors along with a reporter construct expressing a secreted alkaline phosphatase driven by either an NFκB or AP-1 dependent promoter. NFκB and AP-1 are major transcription factors stimulated by toll-like receptor (TLR) and cytokine signaling in immune system cells, and represent likely pathways of SHP-1 inhibition on cellular activation. Cells were transfected with the appropriate construct, reporter and then stimulated with interferon-γ (IFNγ) or bacterial lipopolysaccharide (LPS) as ligands for cytokine and TLR receptors respectively.

AP-1 signaling = test: AP-1-dependent secreted alkaline phosphatase reporter in RAW cells; format: cell-based, murine; conditions: transient transfection, IFNγ or LPS stimulation
Procedure: as §1

H-2K^b [1] = target: T1, H-2K^b (Mus musculus, UniProt P01901); test: MHC class I surface stabilization assay on RMA-S cells, H-2Kb; format: binding; conditions: RMA-S cells pulsed with peptide overnight, flow cytometry
T1 construct: surface stabilization assay using the TAP1 deficient cell line RMA-S; endogenous in cells; host or cells: RMA-S
T1 sequence (P01901 22-369): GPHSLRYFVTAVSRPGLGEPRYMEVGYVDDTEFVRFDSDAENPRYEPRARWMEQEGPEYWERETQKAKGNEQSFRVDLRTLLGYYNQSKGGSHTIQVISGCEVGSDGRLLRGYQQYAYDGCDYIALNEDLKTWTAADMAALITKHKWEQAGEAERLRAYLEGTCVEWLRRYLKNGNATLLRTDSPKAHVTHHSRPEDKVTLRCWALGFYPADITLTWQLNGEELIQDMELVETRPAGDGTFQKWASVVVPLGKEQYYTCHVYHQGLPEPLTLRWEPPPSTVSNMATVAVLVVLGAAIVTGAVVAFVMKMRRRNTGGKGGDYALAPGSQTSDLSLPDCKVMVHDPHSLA
T1 sequence (P01887 21-119 partner): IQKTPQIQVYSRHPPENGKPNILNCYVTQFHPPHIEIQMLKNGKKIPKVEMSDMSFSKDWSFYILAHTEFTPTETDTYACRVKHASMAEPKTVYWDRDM
Procedure: (§2) 10^6 RMA-S cells were incubated overnight at 37° C. with each of the five predicted at the concentrations indicated. Cells were stained with antibodies for H-2K^b (Y-3; ATCC-HB176) or H-2D^b (28-14-8S; ATCC-HB27) followed by a goat anti-mouse-FITC second step and MHC class I surface expression was analyzed by flow cytometry. Specific MFI is the mean fluorescent intensity of the sample-mean fluorescent intensity of goat anti-mouse-FITC second step alone. Error bars represent the standard deviation of triplicate measurements.
(§3) The binding affinity of the five predicted peptides was tested. In a surface stabilization assay using the TAP1 deficient cell line RMA-S. RMA-S cells were pulsed with peptide, at the indicated concentrations, and incubated overnight. Cells were stained with antibodies for H-2K^b (Y-3; ATCC-HB176) or H-2D^b (28-14-8S; ATCC-HB27) followed by a fluorescent-labeled secondary antibody and MHC class I surface expression was analyzed by flow cytometry.

H-2K^b [2] = target: T2, H-2K^b (mouse, UniProt P01887 21-119; P01901 22-305, limits assumed); test: RMA-S surface stabilization assay, flow cytometry with antibody Y-3; reference peptide
T2 construct: whole, on cells;extracellular; MHC class I on RMA-S cells, detected with antibody Y-3 (ATCC-HB176) in a surface stabilization assay; also called MHC class 1 molecule H-2K^b
T2 sequence (MHC heavy, looked up): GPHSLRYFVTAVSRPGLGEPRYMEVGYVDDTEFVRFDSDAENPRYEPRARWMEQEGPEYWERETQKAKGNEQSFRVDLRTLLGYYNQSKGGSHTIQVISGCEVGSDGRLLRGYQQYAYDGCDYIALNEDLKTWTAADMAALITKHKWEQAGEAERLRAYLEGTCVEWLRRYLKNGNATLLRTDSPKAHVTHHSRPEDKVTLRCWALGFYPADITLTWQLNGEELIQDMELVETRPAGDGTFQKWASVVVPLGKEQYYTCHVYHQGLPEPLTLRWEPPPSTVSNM
T2 sequence (b2m, looked up): T1 sequence (P01887 21-119 partner)
Procedure: In Table 1, OVA Kb binding peptide […] was used as control for a known good binder.
as §2, with “10⁶” for “10^6”, “measurements. This is representative of 3 separate studies.” for “measurements.”
as §3, with “cytometry. […] STEAP₈₄₋₉₁ and STEAP₁₈₆₋₁₉₂ bound with an affinity near that of OVA₂₅₈₋₂₆₅, a well characterized strong binding H-2K^b epitope from chicken ovalbumin. […]” for “cytometry.”

H-2D^b = target: T3, H-2D^b (mouse, UniProt P01887 21-119; P01899 25-309); test: RMA-S surface stabilization assay, flow cytometry of MHC class I surface expression
T3 construct: whole, on cells;extracellular; MHC class I on RMA-S cells, detected with antibody 28-14-8S (ATCC-HB27) in a surface stabilization assay; also called MHC class 1 molecule H-2D^b
T3 sequence (MHC heavy, looked up): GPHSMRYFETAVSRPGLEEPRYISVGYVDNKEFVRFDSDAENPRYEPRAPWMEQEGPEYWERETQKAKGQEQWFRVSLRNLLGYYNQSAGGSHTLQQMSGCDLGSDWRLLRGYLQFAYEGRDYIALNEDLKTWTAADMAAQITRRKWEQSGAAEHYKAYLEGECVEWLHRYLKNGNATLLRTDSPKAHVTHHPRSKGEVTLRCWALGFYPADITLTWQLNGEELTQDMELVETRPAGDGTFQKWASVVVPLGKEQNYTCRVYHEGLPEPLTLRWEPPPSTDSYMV
T3 sequence (b2m, looked up): T1 sequence (P01887 21-119 partner)
Procedure: as §2, with “10⁶” for “10^6”, “measurements. This is representative of 3 separate studies.” for “measurements.”
as §3, with “cytometry. […] STEAP₈₄₋₉₁ and STEAP₁₈₆₋₁₉₂ bound with an affinity near that of OVA₂₅₈₋₂₆₅, a well characterized strong binding H-2K^b epitope from chicken ovalbumin. […]” for “cytometry.”

Molecule: dn-SHP-1: phosphatase dead dominant negative SHP-1 C453S mutant construct, HA-tagged (SEQ ID NO:8)
NFκB signaling (NFκB signaling): enhanced both NFκB and AP-1 signaling | AP-1 signaling (AP-1 signaling): enhanced both NFκB and AP-1 signaling

Molecule: RSYRYKLL [STEAP186-192]
relative binding affinity to H-2Kb (MHC class I surface expression) (H-2K^b [1]): bound with an affinity near that of OVA258-265

Molecule: LTFLYTLL [STEAP84-91]
relative binding affinity to H-2Kb (MHC class I surface expression) (H-2K^b [1]): bound with an affinity near that of OVA258-265

binding result (H-2K^b [2]): binds
B1: OVA258-265 (peptide)
peptide: SIINFEKL
notes: also called OVA peptide

binding result (H-2D^b): no binding
B2: STEAP262-270 (peptide)
peptide: LLLGTVHAL
notes: also called LLLGTVHAL

From patent US20090123501A1, “INHIBITION OF THE SH2-DOMAIN CONTAINING PROTEIN TYR-PHOSPHATASE, SHP-1, TO ENHANCE VACCINES” (Baylor College of Medicine, priority 2007, published 2009)
